Where “and” joins values, the source holds several entries; their conditions need not be identical. Equal entries are not always repeated. Calls of active or inactive are those of the source.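 The calls were made as follows: active = compounds giving half or more protection of infected cells from virus-caused growth loss, again on retest; inactive = the rest.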
System: CEM cells HIV-1 protection, formazan growth assay
Test: NCI AIDS Antiviral Assay
Conditions: for IC50: measured here: growth of uninfected CEM cells
Procedure, shortened: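 Human CEM cells, uninfected and HIV-1-infected, received five drug concentrations, and growth was read by soluble formazan assay. Compounds giving at least 50% protection were retested; reproducible 100% protection defined confirmed active.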

Structure (SMILES)	EC50 [µM]	IC50	outcome
O=C(Nc1ccc(Cl)cc1Cl)C(=O)C(C(=O)c1ccc2ccccc2c1)C1OC(=O)c2ccccc21 (stereo not given)	> 50.1	25.7 µM	
N#CC1(C2SCCS2=O)C2=C(C(=O)c3ccccc3C2=O)N2CCCC21 (stereo not given)			inactive
Cc1nc2c(=S)nc[nH]c2n1Nc1ccccc1	> 200	72.4 µM	
O=C1O/C(=C2\OCc3ccccc32)c2ccccc21	> 151	> 151 µM	
C[C@@H](Br)[C@@H]1CC[C@H]2c3[nH]c4ccccc4c3CCN2C1	> 200	17.4 µM	
CC1=NN(c2cccc(S(=O)(=O)O)c2)C(=O)C1N=Nc1cc(Cl)cc(S(=O)(=O)O)c1O.O.[Cr] (stereo not given)	89.1	> 100 µM	
COc1cccc(C2CO2)c1 (stereo not given)	> 200	151 µM	
Oc1ccc(-c2ccc(O)cc2O)c(O)c1	> 200	132 µM	
CN1CCN(CCCCN2c3ccccc3Sc3cc(N=[N+]=[N-])ccc32)CC1	> 200	3.63 µM	
CC(=O)OC1C[C@](C)(O)/C=C/CC(C)/C=C/[C@@]2(C)CCC(C(C)(C)O)C12 (stereo not given in full)			inactive
C=CC(=O)N1CN(C(=O)C=C)CN(C(=O)C=C)C1	> 200	1.15 µM	
CC(=O)O/N=C/c1ncccc1CO	> 490	389 µM	
CN(C)CC1CCCCCCCCCCCCC(CN(C)C)C1=O (stereo not given)	> 21.4	> 21.4 µM	
COC(=O)C1=C2Nc3ccccc3[C@@]23CCN(Cc2ccccc2)C3C[C@H]1C1=CC(OC)OC1OC (stereo not given in full)	> 25.7	15.1 µM	
COC(=O)[C@]1(C)CCCC2(C)C3=C(CCC21)CC1(CC3)SCCS1 (stereo not given in full)	> 186	74.1 µM	
COC1C(O)CC(OC2CC(Oc3cc4cc5c(c(O)c4c(O)c3C)C(=O)[C@@H](OC3CC(OC4CC(OC6CC(C)(O)C(OC(C)=O)C(C)O6)C(O)C(C)O4)C(O)C(C)O3)[C@H]([C@H](OC)C(=O)[C@@H](O)[C@@H](C)O)C5)OC(C)C2OC(C)=O)OC1C (stereo not given in full)	> 6.17	0.00195 µM	
COC(=O)c1cc([O-])c2sc(C)c(C)[n+]2n1	> 1050	724 µM	
CCN(CC)c1ccc(N=Nc2ccc([N+](=O)[O-])cc2OC(=O)/C=C/c2ccccc2)c(OC(=O)/C=C/c2ccccc2)c1	> 4.57	0.851 µM	
CCCCCCCCN(CCCCCCCC)/N=C/c1c2c(O)c3c(O)c(C)c4c(c3c1O)C(=O)C(C)(O/C=C/C(OC)C(C)C(OC(C)=O)C(C)C(O)C(C)C(O)C(C)/C=C/C=C(C)C(=O)N2)O4 (stereo not given)			inactive
NC(=O)c1ncn(C2OC(CO)C(F)C2O)c1N (stereo not given)	> 200	> 200 µM	
CO[C@@H]1CCC=C(C=O)O1			inactive

Structure (SMILES)	EC50 [µM]	IC50	outcome
Cc1c2sc3ccccc3[nH]c2nc2[nH]c3ccccc3sc12	> 38	14.8 µM	
Cc1cn(C2CC(N=[N+]=[N-])C(COC(=O)CCCCCCCCCCOc3ccccc3)O2)c(=O)[nH]c1=O (stereo not given)	0.0468	110 µM	
COc1ccc(C=C2C(=O)NC(=O)NC2=O)cc1OCc1ccccc1	> 200	24.5 µM	
C=CCSCCCC#Cc1ccccc1C(=O)OC	> 200	151 µM	
Clc1ccc(OCc2nnc(CCCCCCCCc3nnc(COc4ccc(Cl)cc4)o3)o2)cc1	> 200	89.1 µM	
OCCN(CCO)c1ccc2c(C(F)(F)F)cc(C(F)(F)F)nc2n1	> 200	148 µM	
Cc1cc2c(cc1C)n1c(N(C)C)[n+]3ccccc3c1c1c3cccc[n+]3c(N(C)C)n21	> 151	21.9 µM	
COC(=O)C12c3[nH]c4ccccc4c3CCN1CC(=O)C2C(=O)OCc1ccccc1 (stereo not given)	> 91.2	57.5 µM	
CC(C)OCC(O)COc1cc(=O)oc2ccccc12 (stereo not given)	> 200	> 200 µM	
CCOC(=O)c1ccc(Nc2nc3ccccc3nc2C(=O)OCC)cc1	> 200	> 200 µM	
Cn1c(=N)c(C#N)c2n(c1=S)CCCCCCC2	> 200	97.7 µM	
O=C1C=CC2CCC1C2 (stereo not given)			inactive
O=c1[nH][nH]c(=O)c2nc(Nc3ccc(Cl)cc3)ncc12	> 34.7	> 34.7 µM	
O=C1CNc2cc(N3CCN(c4ccccc4)CC3)ccc2N1	> 200	25.1 µM	
COC(=O)[C@]12CSCN1C(=O)C(C(C)=O)=NN2C(=O)[C@](OC)(c1ccccc1)C(F)(F)F	> 200	> 200 µM	
CCN(CC)C(=S)N/N=C(/C)c1cccc(/C(C)=N\NC(=S)N(CC)CC)n1	> 200	6.31 µM	
O=C1C2C(C(=O)N1c1ccccc1)C1c3ccccc3C2C2C(=O)N(c3ccccc3)C(=O)C21 (stereo not given)			inactive
CN(c1cn(C2CC[C@@H](CO)O2)c(=O)[nH]c1=O)C1CCCCC1 (stereo not given in full)	> 200	> 200 µM	
OC1[C@H]([C@H]2CCCC[C@@H]2O)CCC[C@@H]1[C@@H]1CCCC[C@H]1O (stereo not given in full)	> 170	> 170 µM	
COc1cc(/C=C2\C(=O)N(C(=O)c3ccc(NC(C)=O)cc3)N=C2C)ccc1O	> 66.1	> 66.1 µM	
Oc1ccccc1-n1nc2ccc3nonc3c2n1	> 200	> 200 µM	

Structure (SMILES)	EC50 [µM]	IC50	outcome
CC(=O)OCC1OC(n2c(C)c(C(C)=O)c(-c3ccco3)c(C#N)c2=S)C(OC(C)=O)C(OC(C)=O)C1OC(C)=O (stereo not given)	> 200	112 µM and 87.1 µM	
CN(NC(=O)c1cccs1)C1=NCCN1	> 200	> 200 µM	
CC(C)(C)C(=O)/C=C/c1ccc(-c2ccccc2)cc1	> 19.5	> 19.5 µM	
CCCCOC(=O)/C(O)=C(\C=NC(=S)c1cccnc1)C(=O)C=C(C)C	> 200	41.7 µM	
COC1/C=C/OC2(C)Oc3c(C)c(O)c4c(O)c(cc(OCC(=O)N(C)C)c4c3C2=O)NC(=O)/C(C)=C/C=C/C(C)C(O)C(C)C(O)C(C)C(OC(C)=O)C1C (stereo not given)	> 200	31.6 µM	
O=C(Nc1ccn(CCOC(=O)c2ccccc2)c(=O)n1)c1ccccc1	> 186	> 186 µM	
CC(=O)C(CCC(=O)O)(CCC(=O)O)C(C)C	> 1020	> 1020 µM	
Cc1cc(C)c(C#N)c(SCC(=O)c2sc3c(C#N)c(C)cc(C)[n+]3c2[O-])n1	> 6.61	> 6.61 µM	
CCCCc1c2c(nc3c1CCCC3=O)C(=O)CCC2	> 5.37	> 5.37 µM	
CC(=O)OC1CC2C(C)(C)C(=O)C=C[C@]2(C)C2CCC3(C)C(c4ccoc4)[C@@H](O)[C@H]4O[C@]43[C@]12C (stereo not given in full)	> 57.5	6.17 µM	
O=c1c(O)c(-c2ccc(-c3oc4ccccc4c(=O)c3O)cc2)oc2ccccc12	> 200	93.3 µM	
O=C(/C=C/c1cccs1)c1ccc(Cl)s1			inactive
COC(=O)CCC(=O)Nc1cc(Cl)ccc1Cl	> 468	> 468 µM	
Cc1c2ccc(Cl)cc2nc2ccc(OCCNC(=O)[C@H](CCCN=C(N)N)NC(=O)OC(C)(C)C)cc12	> 200	89.1 µM	
N#CC1(C#N)[C@@H]2CCC=C(Sc3ccccc3)[C@@H]21	> 200	9.12 µM	
COc1ccc(NC(=S)N/N=C/c2cccc(C)n2)cc1	> 200	4.9 µM	
COc1c(OC)c(N)c2cc(C)c(=O)c(C)cc2c1N	> 240	56.2 µM	
OCC1CC(F)C(n2cnc3c(I)ncnc32)O1 (stereo not given)	> 138	63.1 µM	
O=C1CN(/C=C(/c2ccc(Cl)cc2)S(=O)(=O)Cc2ccc(Cl)cc2)C(=S)N1	> 200	> 200 µM	
